Measured values published in patent US20250129104A1, “7H-PYRROLO[2,3-D]PYRIMIDINES AND PREPARATION AND USES THEREOF” (BioSplice Therapeutics, Inc., priority 2021, published 2025).

Experiments:
[1] = molecular target: recombinant DYRK1A kinase (Homo sapiens (Human), UniProt Q13627); assay: DYRK1A kinase assay (Ser/Thr 18 peptide Z-lyte FRET assay); type: biochemical; details: DYRK1A kinase activity; 15 μM ATP, 1 h room temperature; method text calls the value IC50
Outline: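 Recombinant human DYRK1A (0.25 μg/mL) with 15 μM ATP and 4 μM Ser/Thr 18 peptide, 1 h at room temperature with compound (11-point, 1:3, 10 μM top, duplicate). Z-lyte development 1 h, then coumarin/fluorescein FRET emission ratio converted to % phosphorylation; IC50 by non-linear regression.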

[2] = system: Tau phosphorylation at Thr212 (pThr212); assay: tau phosphorylation assay: phosphoTau (Thr212) AlphaLISA in HEK293T cells transfected with DYRK1A and MAPT; type: cell-based; details: HEK-293T; HEK293T cells transfected with human DYRK1A and MAPT; 18-24 h compound treatment; read-out: pTau (Thr212) EC50
Outline: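 HEK293T cells transiently co-transfected with human untagged DYRK1A and MAPT (441 aa Tau), reseeded, then treated 18-24 h at 37 °C with compounds (10-point 1:3 series, 20 μM to 1.1 nM final, duplicates). Lysates probed by AlphaLISA with HT7 donor and pThr212 acceptor antibodies; EC50 from curve fit of signal.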

Compound	EC50 [1]	EC50 [2]
CC(F)(F)CNc1ncc2c(-c3ccc4nccn4n3)c[nH]c2n1 [Compound 910, N-(2,2-Difluoropropyl)-5-(imidazo[1,2-b]pyridazin-6-yl)-7H-pyrrolo[2,3-d]pyrimidin-2-amine]	18.6 nM	283 nM
C[C@@H](Nc1ncc2c(-c3ccc4nccn4n3)c[nH]c2n1)C(F)(F)F [Compound 912, (R)-5-(Imidazo[1,2-b]pyridazin-6-yl)-N-(1,1,1-trifluoropropan-2-yl)-7H-pyrrolo[2,3-d]pyrimidin-2-amine]	5.5 nM	96 nM
C[C@H](Nc1ncc2c(-c3ccc4nccn4n3)c[nH]c2n1)C(F)(F)F [Compound 913, (S)-5-(Imidazo[1,2-b]pyridazin-6-yl)-N-(1,1,1-trifluoropropan-2-yl)-7H-pyrrolo[2,3-d]pyrimidin-2-amine]	6.4 nM	228 nM
CC1(CNc2ncc3c(-c4ccc5nccn5n4)c[nH]c3n2)CC1 [Compound 919, 5-(Imidazo[1,2-b]pyridazin-6-yl)-N-((1-methylcyclopropyl)methyl)-7H-pyrrolo[2,3-d]pyrimidin-2-amine]	4 nM	30 nM
FC(F)(F)C1(CNc2ncc3c(-c4ccc5nccn5n4)c[nH]c3n2)CC1 [Compound 920, 5-(Imidazo[1,2-b]pyridazin-6-yl)-N-((1-(trifluoromethyl)cyclopropyl)methyl)-7H-pyrrolo[2,3-d]pyrimidin-2-amine]	6.1 nM	70 nM
FC1(CNc2ncc3c(-c4ccc5nccn5n4)c[nH]c3n2)CCC1 [Compound 923, N-((1-Fluorocyclobutyl)methyl)-5-(imidazo[1,2-b]pyridazin-6-yl)-7H-pyrrolo[2,3-d]pyrimidin-2-amine]	2.5 nM	20 nM
FC1(F)CCC(Nc2ncc3c(-c4ccc5nccn5n4)c[nH]c3n2)CC1 [Compound 924, N-(4,4-Difluorocyclohexyl)-5-(imidazo[1,2-b]pyridazin-6-yl)-7H-pyrrolo [2,3-d]pyrimidin-2-amine]	3.2 nM	20 nM
CO[C@H]1CC[C@@H](Nc2ncc3c(-c4ccc5nccn5n4)c[nH]c3n2)CC1 [Compound 925, 5-(Imidazo[1,2-b]pyridazin-6-yl)-N-(cis-4-methoxycyclohexyl)-7H-pyrrolo[2,3-d]pyrimidin-2-amine]	3.2 nM	25 nM
Cc1cnc2ccc(-c3c[nH]c4nc(NCC(C)(C)F)ncc34)nn12 [Compound 1038, N-(2-Fluoro-2-methylpropyl)-5-(3-methylimidazo[1,2-b]pyridazin-6-yl)-7H-pyrrolo[2,3-d]pyrimidin-2-amine]	4.2 nM	33 nM
COc1nc(CC(C)C)nc2[nH]cc(-c3ccn4nccc4c3)c12 [Compound 1113, 2-Isobutyl-4-methoxy-5-(pyrazolo[1,5-a]pyridin-5-yl)-7H-pyrrolo[2,3-d]pyrimidine]	9.2 nM	572 nM
c1cc2cc(-c3c[nH]c4nc(C5CC5)ncc34)ccn2n1 [Compound 1115, 2-Cyclopropyl-5-(pyrazolo[1,5-a]pyridin-5-yl)-7H-pyrrolo[2,3-d]pyrimidine]	24.9 nM	386 nM
CO[C@H]1C[C@@H](Nc2ncc3c(-c4ccn5nccc5c4)c[nH]c3n2)C1 [Compound 1140, N-(cis-3-Methoxycyclobutyl)-5-(pyrazolo[1,5-a]pyridin-5-yl)-7H-pyrrolo [2,3-d]pyrimidin-2-amine]	2.6 nM	6 nM
c1cc2cc(-c3c[nH]c4nc(NC5CC6(COC6)C5)ncc34)ccn2n1 [Compound 1141, 5-(Pyrazolo[1,5-a]pyridin-5-yl)-N-(2-oxaspiro[3.3]heptan-6-yl)-7H-pyrrolo [2,3-d]pyrimidin-2-amine]	385 nM	7 nM
FC1(F)CCC(Nc2ncc3c(-c4ccn5nccc5c4)c[nH]c3n2)CC1 [Compound 1142, N-(4,4-Difluorocyclohexyl)-5-(pyrazolo[1,5-a]pyridin-5-yl)-7H-pyrrolo[2,3-d]pyrimidin-2-amine]	5.7 nM	32 nM
